Experimental findings from PMC8657793, “Synthesis, In Vitro and In Silico Anticancer Activity of New 4-Methylbenzamide Derivatives Containing 2,6-Substituted Purines as Potential Protein Kinases Inhibitors” (International Journal of Molecular Sciences, 2021) are described below.

Type in all cases: cell-based
Assay [1] deals with HL-60 (promyelocytic leukemia). Nature of the assay: MTT anti-proliferative assay, HL-60. The note with it: Homo sapiens, 48 h. On the procedure:
(§1) For the in vitro assays, a stock solution (1% DMSO in the appropriate buffer with the tested compound diluted under sonication) was prepared from which several dilutions were made with the appropriate buffer.
(§2) Human cell lines were obtained from the Institute of Cytology, Russian Academy of Sciences. […] Plates were incubated under standard conditions for 48 h.

In assay [2] the test system is RPMI 1788 (B lymphocyte, normal human lymphoblastoid cells). Nature of the assay: MTT assay on normal cells RPMI 1788. On the procedure: (§3) To determine the selectivity of the synthesized compounds 7–16 toward various cancer cells and normal human cells, the anti-proliferative activity against K562 (chronic myelogenous leukemia), HL-60 (promyelocytic leukemia), MCF-7 (breast adenocarcinoma), HeLa (cervix carcinoma), HepG2 (human liver cancer), A549 (lung carcinoma), OKP-GS (renal cell carcinoma), and normal cells RPMI 1788 (B lymphocyte, the human cell line) was investigated.
(§4) Each in vitro experiment was performed at least in triplicate and the standard deviation of absorbance was less than 10% of the mean. For the in vitro assays, a stock solution (1% DMSO in the appropriate buffer with the tested compound diluted under sonication) was prepared from which several dilutions were made with the appropriate buffer.
Human cell lines were obtained from the Institute of Cytology, Russian Academy of Sciences. The cell lines studied were maintained in RPMI 1640 medium (AppliChem, Darmstadt, Germany) supplemented with 20% (HL-60, RPMI 1788) fetal calf serum (HyClone, Cramlington, UK), in DMEM (A 549) and Eagle’s MEM (AppliChem) (MCF7, HeLa) with 10% fetal calf serum (HyClone). Cells were cultivated at 37 °C in a humidified atmosphere of 5% CO2. Cellular sensitivities to synthesized compounds and standards were measured with the MTT assay. Cells were plated in triplicate in 96-well plates (10^5 cells/well for suspended cell cultures and 5 × 10^3 cells/well for monolayer cultures); on the same day (suspended cell cultures) or on the following day (monolayer cultures), compounds were added at the appropriate dilutions. […] The reference drugs were imatinib, sorafenib and nilotinib. Plates were incubated under standard conditions for 48 h. Thereafter, 10 μL MTT (Sigma) in phosphate-buffered saline (5 mg/mL) was added. The plates were incubated for an additional 4 h and 150 μL dimethylsulphoxide (DMSO) was added to dissolve the formazan crystals. The optical density was read on a HALO MPR-95 Microplate Reader (Dynamica Scientific Ltd., Melbourne, Victoria, Australia) at 570 nm. The antiproliferative effects were taken as degrees of inhibition of tumor cells (%). The average of three parallel measurements was calculated for each concentration of test compound. The degree of cell growth suppression was plotted as a function of the logarithm of the concentration. The half maximal inhibitory concentration (IC50) was determined graphically for active compounds.
For orientation: Tetrazolium assays rely on reduction of a dye to a coloured formazan, in cell work by metabolically active cells.

The test system of assay [3] is K562 (chronic myelogenous leukemia). Nature of the assay: MTT anti-proliferative assay, K562. The note with it: Homo sapiens, 48 h. On the procedure: as §1, §2
In assay [4] the test system is OKP-GS (renal cell carcinoma). Nature of the assay: MTT anti-proliferative assay, OKP-GS. As to conditions: Homo sapiens, 48 h. The protocol:
as §3, §4
Human cell lines were obtained from the Institute of Cytology, Russian Academy of Sciences. The cell lines studied were maintained in RPMI 1640 medium (AppliChem, Darmstadt, Germany) supplemented with 20% (HL-60, RPMI 1788) fetal calf serum (HyClone, Cramlington, UK), in DMEM (A 549) and Eagle’s MEM (AppliChem) (MCF7, HeLa) with 10% fetal calf serum (HyClone). Cells were cultivated at 37 °C in a humidified atmosphere of 5% CO2. Cellular sensitivities to synthesized compounds and standards were measured with the MTT assay. Cells were plated in triplicate in 96-well plates (10^5 cells/well for suspended cell cultures and 5 × 10^3 cells/well for monolayer cultures); on the same day (suspended cell cultures) or on the following day (monolayer cultures), compounds were added at the appropriate dilutions. Anti-proliferative activity was studied at concentrations 0.1–50.0 µM. The reference drugs were imatinib, sorafenib and nilotinib. Plates were incubated under standard conditions for 48 h. Thereafter, 10 μL MTT (Sigma) in phosphate-buffered saline (5 mg/mL) was added. The plates were incubated for an additional 4 h and 150 μL dimethylsulphoxide (DMSO) was added to dissolve the formazan crystals. The optical density was read on a HALO MPR-95 Microplate Reader (Dynamica Scientific Ltd., Melbourne, Victoria, Australia) at 570 nm. The antiproliferative effects were taken as degrees of inhibition of tumor cells (%). The average of three parallel measurements was calculated for each concentration of test compound. The degree of cell growth suppression was plotted as a function of the logarithm of the concentration. The half maximal inhibitory concentration (IC50) was determined graphically for active compounds.

As usually defined, the IC50 is the concentration at which inhibition is half-maximal. Low readings indicate inhibition by little substance, high ones a need for much substance. The inhibition is the drop in the measured response relative to a control, in per cent. Higher therefore signals a strong effect.

Take `Cc1cn(-c2cc(NC(=O)c3ccc(C)c(Nc4nccc(-c5cccnc5)n4)c3)cc(C(F)(F)F)c2)cn1` [Nilotinib, nilotinib, reference compound]: the figures for the IC50 in assay [1], in assay [3] and in assay [4] were 55 µM, under 0.1 µM and 55 µM, respectively. The same compound had an inhibition at 100 µM in assay [2] of 71%.
